Measurements taken from patent publication US20060070135A1, “Compositions and methods for inhibiting the enzymatic activity of PTP-1B” (priority 1998, published 2006).

Columns and labels:
[1] = system: phosphorylation level of the insulin receptor in CHO-IR cells (endogenous PTP-1B); assay: Intact cell assay: insulin receptor phosphorylation level in CHO-IR cells treated with PTP-1B inhibitors and stimulated with insulin; assay type: cell-based, Chinese hamster; conditions: 5 nM insulin; for Intact cell assay: fold-increase over control / fold induction at 50 µM: at 50 μM
Protocol: The phosphorylation level of the insulin receptor (IR) was determined in CHO-IR cells (Chinese hamster ovarian cells expressing endogenous PTP-1B and overexpressing human insulin receptor; ATCC, Manassas, Va.) treated with PTP-1B inhibitors and stimulated with 5 nM insulin. CHO-IR cells were grown in F12 media, 10% fetal bovine serum (FBS), and 1% penstrep. All experiments were conducted within the first 12 passages after thawing cells.
On the first day of the experiment, CHO-IR cells were placed in 6-well plates (1/10 of 100 mm confluent plate). Once cells were confluent (˜24 hours later), the cells were starved overnight in 0% fetal bovine serum F12 medium. After the overnight incubation, the medium was changed to fresh 0% F12 30 minutes prior to the addition of inhibitor. A 1 mL aliquote of media containing inhibitor (10, 25 or 50 μM), with a final concentration of 0.1% DMSO, was added to each well. The inhibitors were added directly to the serum-free media, shortly before using them (i.e., the inhibitor was added to cells within 10 minutes of dilution). Cells were incubated with inhibitors for 2-4 hours. A 250 μL aliquote of insulin (human insulin, HUMULIN™ was subsequently added to each well at a final concentration of 5 nM. The cells were incubated for an additional 10 minutes and washed 2× with cold phosphate-buffered saline (PBS). Proteins were isolated with modified RIPA buffer (200 μL/well) containing protease inhibitor (COMPLETE™), NaF, and Na3VO4.
Protein quantification was conducted using Bradford reagent (BIO-RAD, Hercules, Calif.). Proteins were separated in an 8% SDS-PAGE gel with 25-40 μg protein per well. The proteins were subsequently transferred to PDVF membrane for western blot analysis. Membranes were blocked for 1 hour in either 1% bovine serum albumin for the 4G10 antibody or 5% milk for other antibodies. Membranes were incubated overnight at 4° C. with 4G10 or phospho-antibody, washed 4×5 minutes to remove the primary antibody, incubated 1 hour with secondary antibody, washed an additional 4×5 minutes, and visualized using an ECL detection kit.
Membranes were subsequently stripped, blocked for 1 hour and probed with anti-P-IR, anti-IR, anti-p-AKT, and anti-AKT primary antibodies. Primary antibodies were anti-IR pY1162pY1163 (human) polyclonal antibody and anti-1-IR polyclonal antibody. The blots were washed 4×5 minutes to remove primary antibody, incubated 1 hour in anti-rabbit HRP secondary antibody, washed an additional 4×5 minutes and visualized using ECL.
Bands visualized on the blots were quantified using NIH Image 1.62. Quantification was conducted for at least three experiments.

[2] = molecular target: Insulin receptor (mouse, endogenous; β-subunit immunoprecipitated from tissue membrane fractions) (mouse) (UniProt P15208); assay: cell-based or functional assay
UniProt P15208, sequence (P15208 753-1372 limits assumed): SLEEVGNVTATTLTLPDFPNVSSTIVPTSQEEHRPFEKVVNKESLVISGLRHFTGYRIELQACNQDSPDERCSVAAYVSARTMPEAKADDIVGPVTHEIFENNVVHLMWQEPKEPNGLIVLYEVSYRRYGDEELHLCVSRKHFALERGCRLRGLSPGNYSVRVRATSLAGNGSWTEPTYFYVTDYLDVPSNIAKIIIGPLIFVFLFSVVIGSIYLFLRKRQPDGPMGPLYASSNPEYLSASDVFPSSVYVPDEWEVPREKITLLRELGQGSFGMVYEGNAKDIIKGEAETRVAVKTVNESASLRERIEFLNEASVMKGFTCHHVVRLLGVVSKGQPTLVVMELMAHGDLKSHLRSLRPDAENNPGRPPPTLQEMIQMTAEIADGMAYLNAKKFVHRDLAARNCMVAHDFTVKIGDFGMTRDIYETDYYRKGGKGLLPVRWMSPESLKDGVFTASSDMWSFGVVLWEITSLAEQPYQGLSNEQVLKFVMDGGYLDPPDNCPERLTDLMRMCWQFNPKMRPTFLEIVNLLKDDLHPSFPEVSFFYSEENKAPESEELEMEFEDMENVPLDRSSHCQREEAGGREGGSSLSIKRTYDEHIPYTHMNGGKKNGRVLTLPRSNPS

[3] = Cricetulus griseus, read-out: Intact cell assay: fold-increase over control

Compound | Intact cell assay: fold-increase over control [1] | other results
Nc1c(S(=O)(=O)O)cc(S(=O)(=O)O)c2cccc(O)c12 [compound 11, 4-amino-5-hydroxynaphthalene-1,3-disulfonic acid] | Inactive at 50 μM | 
N#CC(C#N)=C1CSc2sc(=S)sc2SC1 [compound 13, 2-(2-thioxo-[1,3]dithiolo[4,5-b][1,4]dithiepin-6-ylidene)malononitrile] | Inactive at 50 μM | 
CCc1nnc(NS(=O)(=O)c2ccc(NC(=S)NC(=O)/C=C/c3ccc(C(C)C)cc3)cc2)s1 [compound 14, N-(5-ethyl-[1,3,4]thiadiazol-2-yl)-4-{3-[3-(4-isopropylphenyl)-acryloyl]-thioureido}-benzenesulfonamide] | Inactive at 50 μM | 
COc1ccc(-c2csc(N3N=C(c4ccc([N+](=O)[O-])cc4)C(=NNc4ccc(S(N)(=O)=O)cc4)C3=O)n2)cc1 [compound 15, 4-{N′-[1-[4-(4-methoxyphenyl)-thiazol-2-yl]-3-(4-nitrophenyl)-5-oxo-1,5-dihydropyrazol-4-ylidene]-hydrazino}-benzenesulfonamide] | Inactive at 50 μM | 
O=C(/C=C/c1ccco1)Nc1ccc(C(=O)O)cc1NC(=O)/C=C/c1ccco1 [compound 16, 3,4-bis-(3-furan-2-ylacryloylamino)-benzoic acid] | Inactive at 50 μM | 
O=C(O)c1ccc(N2C(=O)/C(=C/c3ccc(-c4ccc([N+](=O)[O-])cc4)o3)C=C2c2ccccc2)cc1 [compound 17, 4-{3-[5-(4-nitrophenyl)-furan-2-ylmethylene]-2-oxo-5-phenyl-2,3-dihydropyrrol-1-yl}-benzoic acid] | Inactive at 50 μM | 
Nc1nnnn1/N=C/c1cc(I)cc(I)c1O [compound 19, 2-[(5-aminotetrazol-1-ylimino)-methyl]-4,6-diiodophenol] | Inactive at 50 μM | 
O=[N+]([O-])c1ccc(O)c(/C=N/N=c2/[nH]c3nonc3nc2Nc2ccc(I)cc2)c1 [compound 20, 2-{[6-(4-iodophenylamino)-4H-[1,2,5]oxadiazolo[3,4-b]pyrazin-5-ylidene]-hydrazonomethyl}-4-nitrophenol] | Inactive at 50 μM | 
O=C1C=CC(=O)c2c(O)cccc21 [compound 21, 5-hydroxy-[1,4]-naphthoquinone] |  | fold induction at 50 µM [1, 3]: 0.87
COc1cc(/C=C2/SC(=S)N(c3cccc(Cl)c3)C2=O)cc([N+](=O)[O-])c1O [compound 22, 3-(3-chlorophenyl)-5-(4-hydroxy-3-methoxy-5-nitrobenzylidene)-2-thioxothiazolidin-4-one] |  | fold induction at 25 µM ([1]; Cricetulus griseus, at 25 μM, read-out: Intact cell assay: fold-increase over control): 2.7; fold induction at 50 µM [1, 3]: 4.1
Protein tyrosine phosphatase-1B (mouse, endogenous) (from UniProt P35821 1-432) |  | insulin receptor tyrosine phosphorylation in liver of wild-type mice, 5 minutes against 1 minute after insulin injection [2]: 50%
Protein tyrosine phosphatase-1B (mouse, endogenous) (from UniProt P35821 1-432) (enzyme) |  | insulin receptor phosphorylation level in muscle after insulin challenge, PTP-1B (+/-) against wild-type mice on high fat, high carbohydrate diet [2]: 2 fold; insulin receptor phosphorylation level in muscle after insulin challenge, PTP-1B (-/-) against wild-type mice on high fat, high carbohydrate diet [2]: 4 fold; phosphotyrosine level of the insulin receptor in muscle of insulin treated PTP-1B null mice compared to wild-type (immunoprecipitation, anti-phosphotyrosine immunoblot, densitometry) [2]: 40%
